Reference: US20050112573A1, “Method of detecting toxic substance” (priority 2001, published 2005)

Tested on: yeast genes (level of expressed mRNA)
Test: DNA chip analysis of expressed mRNA of yeast genes after 2 h culture with a toxic chemical substance
Format: cell-based, Saccharomyces cerevisiae S288C
Settings: for The level of expressed mRNA in the presence of chemical substance/ (ratio to absence of chemical substance): stress protein genes, DNA chip
How it was run: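 S. cerevisiae S288C grown at 25° C in YPD; toxicant added at log phase at growth-inhibitory, non-lethal levels for 2 h, untreated cells as control. Poly(A) mRNA reverse-transcribed with Cy3/Cy5-dUTP, hybridized to whole-genome chip at 65° C >12 h; value is fluorescence ratio versus untreated.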

## S=C([S-])NCCNC(=S)[S-].[Zn+2] [(11), zinc N,N′-ethylenebis(dithiocarbamate)]
Yeast gene YIL123W
  The level of expressed mRNA in the presence of chemical substance/The level of expressed mRNA in the absence of chemical substance: 1.2
Yeast gene YIL140W
  The level of expressed mRNA in the presence of chemical substance/The level of expressed mRNA in the absence of chemical substance: 0.9
Yeast gene YJL070C, ratio of DNA chip fluorescence intensity to that without chemical substance
  The level of expressed mRNA in the presence of chemical substance/ (in its absence), gene YJL070C: 1.3
Yeast gene YJL073W
  The level of expressed mRNA in the presence of chemical substance/The level of expressed mRNA in the absence of chemical substance: 0.5
Yeast gene YJL089W
  The level of expressed mRNA in the presence of chemical substance/The level of expressed mRNA in the absence of chemical substance: 0.6
Yeast gene YJL096W, mitochondria-located protein genes, 2 h culture with chemical
  The level of expressed mRNA in the presence of chemical substance/ (ratio to absence), gene YJL096W: 1.2
Yeast gene YJL116C
  The level of expressed mRNA in the presence of chemical substance/The level of expressed mRNA in the absence of chemical substance: 2.9
Yeast gene YJL158C
  The level of expressed mRNA in the presence of chemical substance/ (ratio to absence of chemical substance): 1.9
Yeast gene YJL167W, ratio of DNA chip fluorescence intensity to that without chemical substance
  The level of expressed mRNA in the presence of chemical substance/ (in its absence), gene YJL167W: 1.2
Yeast gene YJL180C, mitochondria-located protein genes, 2 h culture with chemical
  The level of expressed mRNA in the presence of chemical substance/ (ratio to absence), gene YJL180C: 1.4
Yeast gene YJL216C, ratio of DNA chip fluorescence intensity to that without chemical substance
  The level of expressed mRNA in the presence of chemical substance/ (in its absence), gene YJL216C: 1.1
Yeast gene YJR004C
  The level of expressed mRNA in the presence of chemical substance/The level of expressed mRNA in the absence of chemical substance: 0.7
Yeast gene YJR086W
  The level of expressed mRNA in the presence of chemical substance/The level of expressed mRNA in the absence of chemical substance: 1.0
Yeast gene YJR090C
  The level of expressed mRNA in the presence of chemical substance/ (ratio to absence of chemical substance): 0.4
Yeast gene YKL008C
  The level of expressed mRNA in the presence of chemical substance/The level of expressed mRNA in the absence of chemical substance: 1.5
Yeast gene YKL013C
  The level of expressed mRNA in the presence of chemical substance/The level of expressed mRNA in the absence of chemical substance: 1.1
Yeast gene YKL039W
  The level of expressed mRNA in the presence of chemical substance/The level of expressed mRNA in the absence of chemical substance: 1.0
Yeast gene YKL041W
  The level of expressed mRNA in the presence of chemical substance/The level of expressed mRNA in the absence of chemical substance: 1.2
Yeast gene YKL096W
  The level of expressed mRNA in the presence of chemical substance/The level of expressed mRNA in the absence of chemical substance: 3.5
Yeast gene YKL139W
  The level of expressed mRNA in the presence of chemical substance/The level of expressed mRNA in the absence of chemical substance: 1.4
Yeast gene YKL164C
  The level of expressed mRNA in the presence of chemical substance/ (ratio to absence of chemical substance): 1.0
Yeast gene YKL165C
  The level of expressed mRNA in the presence of chemical substance/The level of expressed mRNA in the absence of chemical substance: 0.3
Yeast gene YKL193C
  The level of expressed mRNA in the presence of chemical substance/The level of expressed mRNA in the absence of chemical substance: 1.7
Yeast gene YKR009C, ratio of DNA chip fluorescence intensity to that without chemical substance
  The level of expressed mRNA in the presence of chemical substance/ (in its absence), gene YKR009C: 1.2
Yeast gene YKR034W, ratio of DNA chip fluorescence intensity to that without chemical substance
  The level of expressed mRNA in the presence of chemical substance/ (in its absence), gene YKR034W: 0.0
Yeast gene YKR053C
  The level of expressed mRNA in the presence of chemical substance/ (ratio to absence of chemical substance): 0.5
Yeast gene YKR058W, energy system protein genes, 2 h culture with the chemical, ratio to control without chemical
  The level of expressed mRNA in the presence of chemical substance/ in its absence, gene YKR058W: 1.5
Yeast gene YLR006C, ratio of DNA chip fluorescence intensity to that without chemical substance
  The level of expressed mRNA in the presence of chemical substance/ (in its absence), gene YLR006C: 1.5
Yeast gene YLR006C
  The level of expressed mRNA in the presence of chemical substance/ (ratio to absence of chemical substance): 1.5
Yeast gene YLR120C
  The level of expressed mRNA in the presence of chemical substance/The level of expressed mRNA in the absence of chemical substance: 1.2
Yeast gene YLR136C
  The level of expressed mRNA in the presence of chemical substance/The level of expressed mRNA in the absence of chemical substance: 1.2
Yeast gene YLR178C
  The level of expressed mRNA in the presence of chemical substance/The level of expressed mRNA in the absence of chemical substance: 3.7
Yeast gene YLR250W
  The level of expressed mRNA in the presence of chemical substance/The level of expressed mRNA in the absence of chemical substance: 1.4
Yeast gene YLR295C, energy system protein genes, 2 h culture with the chemical, ratio to control without chemical
  The level of expressed mRNA in the presence of chemical substance/ in its absence, gene YLR295C: 1.3
Yeast gene YLR295C, mitochondria-located protein genes, 2 h culture with chemical
  The level of expressed mRNA in the presence of chemical substance/ (ratio to absence), gene YLR295C: 1.3
Yeast gene YLR327C
  The level of expressed mRNA in the presence of chemical substance/The level of expressed mRNA in the absence of chemical substance: 5.0
Yeast gene YLR351C, ratio of DNA chip fluorescence intensity to that without chemical substance
  The level of expressed mRNA in the presence of chemical substance/ (in its absence), gene YLR351C: 1.1
Yeast gene YLR356W
  The level of expressed mRNA in the presence of chemical substance/The level of expressed mRNA in the absence of chemical substance: 3.1
Yeast gene YLR362W
  The level of expressed mRNA in the presence of chemical substance/The level of expressed mRNA in the absence of chemical substance: 1.5
Yeast gene YLR375W, ratio of DNA chip fluorescence intensity to that without chemical substance
  The level of expressed mRNA in the presence of chemical substance/ (in its absence), gene YLR375W: 1.6
Yeast gene YLR391W
  The level of expressed mRNA in the presence of chemical substance/The level of expressed mRNA in the absence of chemical substance: 1.4
Yeast gene YLR429W
  The level of expressed mRNA in the presence of chemical substance/The level of expressed mRNA in the absence of chemical substance: 0.9
Yeast gene YML129C, energy system protein genes, 2 h culture with the chemical, ratio to control without chemical
  The level of expressed mRNA in the presence of chemical substance/ in its absence, gene YML129C: 1.2
Yeast gene YML129C, mitochondria-located protein genes, 2 h culture with chemical
  The level of expressed mRNA in the presence of chemical substance/ (ratio to absence), gene YML129C: 1.2
Yeast gene YMR004W
  The level of expressed mRNA in the presence of chemical substance/The level of expressed mRNA in the absence of chemical substance: 2.5
Yeast gene YMR023C, mitochondria-located protein genes, 2 h culture with chemical
  The level of expressed mRNA in the presence of chemical substance/ (ratio to absence), gene YMR023C: 0.8
Yeast gene YMR094W
  The level of expressed mRNA in the presence of chemical substance/The level of expressed mRNA in the absence of chemical substance: 1.0
Yeast gene YMR104C
  The level of expressed mRNA in the presence of chemical substance/The level of expressed mRNA in the absence of chemical substance: 1.1
Yeast gene YMR186W
  The level of expressed mRNA in the presence of chemical substance/ (ratio to absence of chemical substance): 1.1
Yeast gene YMR219W
  The level of expressed mRNA in the presence of chemical substance/The level of expressed mRNA in the absence of chemical substance: 1.5
Yeast gene YMR226C
  The level of expressed mRNA in the presence of chemical substance/The level of expressed mRNA in the absence of chemical substance: 1.4
Yeast gene YMR267W, energy system protein genes, 2 h culture with the chemical, ratio to control without chemical
  The level of expressed mRNA in the presence of chemical substance/ in its absence, gene YMR267W: 1.0
Yeast gene YMR267W, mitochondria-located protein genes, 2 h culture with chemical
  The level of expressed mRNA in the presence of chemical substance/ (ratio to absence), gene YMR267W: 1.0
Yeast gene YMR267W, ratio of DNA chip fluorescence intensity to that without chemical substance
  The level of expressed mRNA in the presence of chemical substance/ in its absence, gene YMR267W: 1.0
Yeast gene YMR275C
  The level of expressed mRNA in the presence of chemical substance/The level of expressed mRNA in the absence of chemical substance: 1.1
Yeast gene YMR276W
  The level of expressed mRNA in the presence of chemical substance/The level of expressed mRNA in the absence of chemical substance: 1.9
Yeast gene YMR278W, ratio of DNA chip fluorescence intensity to that without chemical substance
  The level of expressed mRNA in the presence of chemical substance/ (in its absence), gene YMR278W: 1.1
